Tests used:
[1] = In vitro stability in plasma; type: in vitro ADME, mouse; details: mice plasma
Experimental: The stability of ITRI-148 was assessed in plasma across four species: humans, dogs, rats, and mice. ITRI-148 added to pre-warmed plasma at 1 μM was maintained at the designated temperature, and aliquots were collected at 0, 0.5, 1, 2, and 4 hours after incubation. At each time point, 20 μL of the samples was taken to terminate the reaction, followed by LC-MS/MS analysis to determine the remaining compound concentration. Data from duplicated experiments was calculated and presented as mean ± SD.

CWR22Rv1 = assay: MTT cell viability, 7 days; type: cell-based; details: 168 h
Experimental: (§1) Cells were seeded in 96-well plates and treated with drugs the next day. After 7 days, viability was assessed using MTT assay.
(§2) (C) Western blot analysis of AR and AR-V7 in C4-2B and C4-2B/MDVR cells after 48-hour ITRI-148 treatment. […] DEGs were determined relative to DMSO or pLKO.1 vector control. […] RPL13A was used for normalization. […] AR, AR-V7, and PSA expression in the drug-treated cells were detected across treatment timepoints.

PC3 = assay: MTT cell viability, 7 days; type: cell-based
Experimental: as §1, §2

LNCaP95 = assay: MTT cell viability, 7 days; type: cell-based; details: LNCaP-95, 168 h
Experimental: as §1, §2

PNT2 = assay: MTT cell viability, 7 days; type: cell-based
Experimental: as §1, §2

C4-2B/MDVR = assay: MTT cell viability, 7 days; type: cell-based; details: 168 h
Experimental: as §1, §2

VCaP = assay: MTT cell viability, 7 days; type: cell-based; details: Homo sapiens, 168 h
Experimental: as §1, §2

LNCaP = assay: MTT cell viability, 7 days; type: cell-based; details: Homo sapiens, 168 h
Experimental: as §1, §2

Question: What does the source list for `O=C1CCC(N2C(=O)c3cccc(NCC(=O)N4CCC(N5CCC(C#Cc6ccc(C7CCN(C8=Nn9c(nnc9C(F)(F)F)CC8)CC7)cc6)CC5)CC4)c3C2=O)C(=O)N1` (centres unmarked) [ITRI-148]?
Answer: Remaining of intact drug (%) ([1]; 1 μM, incubation up to 4 hours): 80.2 ± 0.3%; half-life at 1 μM ([1]; mouse, read-out: Plasma Stability t1/2): > 4 h; IC50 (CWR22Rv1): 2150 nM; sensitivity of cell viability (PC3; AR-negative CRPC cells (PC3)): insensitive; IC50 (PC3; Homo sapiens, PC-3, PC3, MTT): > 10000 nM; IC50 (LNCaP95): 1960 nM; IC50 (PNT2; Homo sapiens, PNT2, MTT): > 10000 nM; sensitivity of cell viability (PNT2; normal prostate epithelial cells (PNT2)): insensitive; IC50 (C4-2B/MDVR): 1600 nM; IC50 (VCaP): 890 nM; IC50 (LNCaP): 170 nM
